From the Kinase Knowledgebase extract (Sharma et al. 2016)

Molecular target: MAPK14 (human) (UniProt Q16539)
Test: Inhibition of LPS Stimulated TNF Production by U937 Cells
Details: not given

MAPK14 (human), sequence (Q16539 whole entry, looked up): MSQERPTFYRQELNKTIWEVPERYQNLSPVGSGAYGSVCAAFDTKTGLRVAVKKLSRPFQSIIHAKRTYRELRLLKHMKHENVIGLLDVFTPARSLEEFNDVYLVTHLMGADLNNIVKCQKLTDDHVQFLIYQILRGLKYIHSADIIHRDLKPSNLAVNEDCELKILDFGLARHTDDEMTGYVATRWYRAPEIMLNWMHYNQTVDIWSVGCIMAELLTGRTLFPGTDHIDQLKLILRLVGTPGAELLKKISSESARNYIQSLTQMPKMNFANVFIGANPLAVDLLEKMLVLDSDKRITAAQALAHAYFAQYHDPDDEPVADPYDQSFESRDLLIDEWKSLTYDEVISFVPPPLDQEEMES

Compound	IC50
Fc1ccc(-c2[nH]nc(Nc3ccccc3)c2-c2ccncc2)cc1	1090 nM
CCN(CC)CCn1cc(-c2ccncc2)c(-c2ccc(F)cc2)n1	509 nM
CN(C)CCn1cc(-c2ccnc(CCc3ccc(F)cc3)c2)c(-c2ccc(F)cc2)n1	> 10000 nM
O=S(=O)(c1ccccc1F)N1CCC(c2[nH]nc(-c3ccc(F)cc3)c2-c2ccncc2)CC1	5000 nM
C[C@@H](NC(=O)NCc1ccccc1)c1[nH]nc(-c2ccc(F)cc2)c1-c1ccncc1	2420 nM
C[C@H](NS(C)(=O)=O)c1[nH]nc(-c2ccc(F)cc2)c1-c1ccncc1	1700 nM
Fc1cc(-c2c[nH]nc2-c2ccc(F)c(F)c2)ccn1	517 nM
O=C(NCCc1[nH]nc(-c2ccc(F)cc2)c1-c1ccncc1)c1cccc(C(F)(F)F)c1F	> 1000 nM
CNC(=O)CC[C@H](NC(=O)c1ccccc1OC)c1[nH]nc(-c2ccc(F)cc2)c1-c1ccncc1	> 1000 nM
Fc1ccc(-c2n[nH]cc2-c2ccnc(NCc3cccc(F)c3)c2)cc1	141 nM
O=C(c1ccc(I)cc1)N1CCC(c2[nH]nc(-c3ccc(F)cc3)c2-c2ccncc2)CC1	270 nM
CC(C)=CC(=O)NCc1[nH]nc(-c2ccc(F)cc2)c1-c1ccncc1	11000 nM
O=C(NCCCc1[nH]nc(-c2ccc(F)cc2)c1-c1ccncc1)NCCCN1CCCC1=O	> 1000 nM
Cc1[nH]nc(-c2ccc(Cl)cc2)c1-c1ccncc1	201 nM
O=C(c1ccccn1)N1CCC(c2[nH]nc(-c3ccc(F)cc3)c2-c2ccncc2)CC1	250 nM
Clc1ccc(-c2n[nH]cc2-c2ccncc2)cc1Cl	170 nM
C[C@H](NS(=O)(=O)/C=C/c1ccccc1)c1[nH]nc(-c2ccc(F)cc2)c1-c1ccncc1	590 nM

Compound	IC50
Cc1n[nH]c(-c2cccc(Cl)c2)c1-c1ccncc1	74 nM
O=C(c1ccc(Br)cc1)N1CCC(c2[nH]nc(-c3ccc(F)cc3)c2-c2ccncc2)CC1	1380 nM
Cn1cc(-c2ccncc2)c(-c2cccc(F)c2)n1	462 nM
C[C@@H](NC(=O)c1ccccc1I)c1[nH]nc(-c2ccc(F)cc2)c1-c1ccncc1	660 nM
CC(C)=CC(=O)N[C@H](Cc1ccccc1)c1[nH]nc(-c2ccc(F)cc2)c1-c1ccncc1	> 1000 nM
O=C(NCc1[nH]nc(-c2ccc(F)cc2)c1-c1ccncc1)C1CC1	3330 nM
Cc1n[nH]c(-c2ccc3c(c2)OCO3)c1-c1ccncc1	1690 nM
CCOc1ccc(-c2[nH]nc(C)c2-c2ccncc2)cc1	2360 nM
O=C(c1cccs1)N1CCC(c2[nH]nc(-c3ccc(F)cc3)c2-c2ccncc2)CC1	370 nM
C#CCNc1n[nH]c(-c2ccc(F)cc2)c1-c1ccncc1	300 nM
CN(C)CCCNC(=O)NCCCc1[nH]nc(-c2ccc(F)cc2)c1-c1ccncc1	> 1000 nM
O=C(NCc1[nH]nc(-c2ccc(F)cc2)c1-c1ccncc1)c1ccccc1C(F)(F)F	3950 nM
O=C(NCc1[nH]nc(-c2ccc(F)cc2)c1-c1ccncc1)c1ccccc1I	2970 nM
Cn1cc(-c2ccnc(CCc3ccc(F)cc3)c2)c(-c2ccc(F)cc2)n1	327 nM
CCNC(=O)N[C@@H](CCC(=O)NC)c1[nH]nc(-c2ccc(F)cc2)c1-c1ccncc1	> 1000 nM
Cn1cc(-c2ccnc(F)c2)c(-c2ccc(F)cc2)n1	456 nM

Same assay, conditions: concentration not given here

Compound	inhibition
C[C@H](NS(=O)(=O)c1ccc(-c2ccon2)s1)c1[nH]nc(-c2ccc(F)cc2)c1-c1ccncc1	95%
COc1ccc(Cl)cc1S(=O)(=O)N[C@@H](C)c1[nH]nc(-c2ccc(F)cc2)c1-c1ccncc1	76%
C[C@@H](NS(=O)(=O)c1ccccc1C(F)(F)F)c1[nH]nc(-c2ccc(F)cc2)c1-c1ccncc1	70%
C[C@H](NC(=O)c1cccc(F)c1F)c1[nH]nc(-c2ccc(F)cc2)c1-c1ccncc1	32%
C[C@@H](NS(=O)(=O)/C=C/c1ccccc1)c1[nH]nc(-c2ccc(F)cc2)c1-c1ccncc1	36%
C[C@H](NC(=O)c1c(Cl)cccc1Cl)c1[nH]nc(-c2ccc(F)cc2)c1-c1ccncc1	35%
O=C(NCCCc1[nH]nc(-c2ccc(F)cc2)c1-c1ccncc1)NCCCN1CCCC1	1%
C[C@H](NC(=O)N(C)C)c1[nH]nc(-c2ccc(F)cc2)c1-c1ccncc1	54%
C[C@@H](NC(=O)c1ccc(Cl)cc1)c1[nH]nc(-c2ccc(F)cc2)c1-c1ccncc1	36%
O=C(NCc1[nH]nc(-c2ccc(F)cc2)c1-c1ccncc1)Nc1ccc(OC(F)(F)F)cc1	11%
O=S(=O)(NCCc1[nH]nc(-c2ccc(F)cc2)c1-c1ccncc1)c1cccc2cnccc12	91%
Cc1noc(C)c1C(=O)N[C@@H](C)c1[nH]nc(-c2ccc(F)cc2)c1-c1ccncc1	32%
CCCCOc1ccc(S(=O)(=O)N[C@H](C)c2[nH]nc(-c3ccc(F)cc3)c2-c2ccncc2)cc1	67%
C[C@@H](NC(=O)c1cccc(F)c1F)c1[nH]nc(-c2ccc(F)cc2)c1-c1ccncc1	64%
CCCS(=O)(=O)N[C@H](Cc1ccccc1)c1[nH]nc(-c2ccc(F)cc2)c1-c1ccncc1	13%
O=S(=O)(NCc1[nH]nc(-c2ccc(F)cc2)c1-c1ccncc1)c1ccc(F)c(Cl)c1	78%
O=S(=O)(c1cccc(Cl)c1)N1CCC(c2[nH]nc(-c3ccc(F)cc3)c2-c2ccncc2)CC1	31%
Cc1c(Cl)cccc1S(=O)(=O)N[C@H](C)c1[nH]nc(-c2ccc(F)cc2)c1-c1ccncc1	71%
O=S(=O)(NCCc1[nH]nc(-c2ccc(F)cc2)c1-c1ccncc1)c1cc(Cl)c(Cl)s1	28%
C[C@@H](NC(=O)c1cccc(C(F)(F)F)c1)c1[nH]nc(-c2ccc(F)cc2)c1-c1ccncc1	25%

Compound	inhibition
C[C@H](NS(=O)(=O)c1cccc2cccnc12)c1[nH]nc(-c2ccc(F)cc2)c1-c1ccncc1	58%
CCCOC(=O)NCc1[nH]nc(-c2ccc(F)cc2)c1-c1ccncc1	65%
Cc1c(Cl)cccc1S(=O)(=O)N[C@@H](C)c1[nH]nc(-c2ccc(F)cc2)c1-c1ccncc1	54%
CC(C)c1cc(C(C)C)c(C(=O)N[C@H](C)c2[nH]nc(-c3ccc(F)cc3)c2-c2ccncc2)c(C(C)C)c1	31%
O=S(=O)(NCCc1[nH]nc(-c2ccc(F)cc2)c1-c1ccncc1)c1cccc(Cl)c1Cl	21%
C[C@H](NS(=O)(=O)c1cccc(Cl)c1Cl)c1[nH]nc(-c2ccc(F)cc2)c1-c1ccncc1	78%
O=C(CCc1ccccc1)NCc1[nH]nc(-c2ccc(F)cc2)c1-c1ccncc1	21%
C[C@H](NS(=O)(=O)c1ccc(Cl)cc1Cl)c1[nH]nc(-c2ccc(F)cc2)c1-c1ccncc1	88%
C[C@@H](NC(=O)c1ccc(F)cc1F)c1[nH]nc(-c2ccc(F)cc2)c1-c1ccncc1	77%
O=C(NCc1[nH]nc(-c2ccc(F)cc2)c1-c1ccncc1)C1CCC1	28%
C[C@@H](NC(=O)c1ccccc1Br)c1[nH]nc(-c2ccc(F)cc2)c1-c1ccncc1	87%
Cc1c(C)c(S(=O)(=O)N[C@H](C)c2[nH]nc(-c3ccc(F)cc3)c2-c2ccncc2)c(C)c2c1OC(C)(C)CC2	68%
CC(C)OC(=O)NCc1[nH]nc(-c2ccc(F)cc2)c1-c1ccncc1	54%
O=S(=O)(NCc1[nH]nc(-c2ccc(F)cc2)c1-c1ccncc1)c1ccccc1Br	68%
C[C@@H](NS(=O)(=O)c1cccc(Br)c1)c1[nH]nc(-c2ccc(F)cc2)c1-c1ccncc1	95%
Cc1c(C)c(S(=O)(=O)NCc2[nH]nc(-c3ccc(F)cc3)c2-c2ccncc2)c(C)c2c1OC(C)(C)CC2	11%
COc1ccc(CC(=O)N[C@@H](C)c2[nH]nc(-c3ccc(F)cc3)c2-c2ccncc2)cc1	22%
C[C@@H](NC(=O)c1cc(F)cc(F)c1)c1[nH]nc(-c2ccc(F)cc2)c1-c1ccncc1	48%
C[C@H](NC(=O)N[C@H](C)c1ccccc1)c1[nH]nc(-c2ccc(F)cc2)c1-c1ccncc1	41%
C[C@@H](NC(=O)c1cc(F)ccc1F)c1[nH]nc(-c2ccc(F)cc2)c1-c1ccncc1	67%

Compound	inhibition
C[C@H](NC(=O)[C@@H]1CCCN1)c1[nH]nc(-c2ccc(F)cc2)c1-c1ccncc1	47%
O=C(NCc1[nH]nc(-c2ccc(F)cc2)c1-c1ccncc1)c1ccc(Cl)c(Cl)c1	31%
CNC(=O)NCc1[nH]nc(-c2ccc(F)cc2)c1-c1ccncc1	30%
C[C@H](NC(=O)c1ccc(C(F)(F)F)cc1F)c1[nH]nc(-c2ccc(F)cc2)c1-c1ccncc1	33%
CCc1ccc(S(=O)(=O)NCc2[nH]nc(-c3ccc(F)cc3)c2-c2ccncc2)cc1	8%
C[C@H](NC(=O)c1ccccc1Cl)c1[nH]nc(-c2ccc(F)cc2)c1-c1ccncc1	48%
C[C@@H](NC(=O)c1ccccn1)c1[nH]nc(-c2ccc(F)cc2)c1-c1ccncc1	24%
COc1ccc(CC(=O)N[C@H](C)c2[nH]nc(-c3ccc(F)cc3)c2-c2ccncc2)cc1OC	28%
O=S(=O)(NCc1[nH]nc(-c2ccc(F)cc2)c1-c1ccncc1)c1cc(Cl)cc(Cl)c1	45%
O=C(NCc1[nH]nc(-c2ccc(F)cc2)c1-c1ccncc1)NC(=O)c1ccccc1	28%
CNC(=O)N[C@@H](C)c1[nH]nc(-c2ccc(F)cc2)c1-c1ccncc1	79%
COc1ccc(C)cc1S(=O)(=O)N[C@H](C)c1[nH]nc(-c2ccc(F)cc2)c1-c1ccncc1	92%
CN(C)c1ccc(CNC(=O)NCCCc2[nH]nc(-c3ccc(F)cc3)c2-c2ccncc2)cc1	15%
O=C(NCc1[nH]nc(-c2ccc(F)cc2)c1-c1ccncc1)c1cc(F)c(F)cc1F	36%
O=C(NCc1[nH]nc(-c2ccc(F)cc2)c1-c1ccncc1)c1cccc(Cl)c1	32%
C[C@H](NC(=O)Nc1cccc(F)c1)c1[nH]nc(-c2ccc(F)cc2)c1-c1ccncc1	22%
O=S(=O)(c1ccc(Cl)cc1)N1CCC(c2[nH]nc(-c3ccc(F)cc3)c2-c2ccncc2)CC1	25%
O=C(NCc1[nH]nc(-c2ccc(F)cc2)c1-c1ccncc1)Nc1ccccc1-c1ccccc1	2%
C[C@H](NC(=O)c1cc(Cl)cc(Cl)c1)c1[nH]nc(-c2ccc(F)cc2)c1-c1ccncc1	3%
O=C(NCc1[nH]nc(-c2ccc(F)cc2)c1-c1ccncc1)c1ccc(F)cc1F	54%
